In publication PMC9019904, “AD Informer Set: Chemical tools to facilitate Alzheimer's disease drug discovery” (Alzheimer's & Dementia : Translational Research & Clinical …, 2022):

Assays:
[1] = tested on: HMC3 (human microglia) cell line; assay: pHrodo-myelin phagocytosis/cell viability high content imaging assay: viability (cell count, nuclear area, nuclear intensity); conditions: 48 hours treatment
Method: (§1) All AD Informer Set compounds were tested in two immortalized microglial cell lines, murine (BV2), and human (HMC3), in a high‐content imaging assay in duplicate by the Chu lab. Experimental details and all data can be found as supporting information files.
(§2) The role of microglia in AD has been well documented and was thus chosen as a cell type in which to profile the AD Informer Set.[43], [44], [45] As an example, neuroinflammation, as detected by the presence of activated complement proteins, interleukins, cytokines, and chemokines in microglia and astrocytes, is increased early in AD and is considered pathogenic due to its chronic nature.[33], [34] Cytotoxic effects can be assessed by considering multiple parameters.
(§3) Microglial viability and phagocytosis studies: The pHrodo-myelin phagocytosis/cell viability assay, modified based on a published method, was run with immortalized BV2 (mouse microglia) and HMC3 (human microglia) cell lines in the Chu lab at IUSM. The 384-well plate high content analysis assay with BV2 and HMC3 microglial cell lines is used to quantify both phagocytosis and cell viability simultaneously. High content imaging is performed with the ArrayScan automatic imaging system and imaging analysis done with the software on the system. After allowing cells to adhere overnight, they are treated with compounds for total 48 hours including final 20 hours seeded with pHrodo-myelin (labeled phagocytosis ligand, purified […]
(§4) (approximately 22 hours after pHrodo-myelin addition). Three measurements are extracted from the assay: 1) phagocytosis signal by mean total phagocytosis spot intensity per cell, 2) total cell counts per well as the main measurement of cell viability, and 3) mean average nuclear intensity per cell as profiling of cell health since apoptotic cells showing nuclear intensity increase (early apoptosis) and decrease (later apoptosis), respectively. These measurements allow for evaluation of compound-induced phagocytosis (1) and cytotoxicity (2 and 3). Assays were carried out at a single concentration (10 μM). Idelalisib (10 μM) and cytochalasin-D (4 μM) were used as positive controls in the assay. All data, which was an average of 2 data points, was normalized to untreated wells and reported as % control, which is included in the Supporting Information both as a raw data file and summarized in the compound/gene-annotation file.

[2] = tested on: BV2 (mouse microglia) cell line; assay: as above; conditions: 48 hours treatment
Method: as §1, §2, §3, §4

[3] = tested on: HMC3 (human microglia) cell line; assay: pHrodo-myelin phagocytosis/cell viability high content imaging assay: phagocytosis signal; assay type: cell-based
Method: (§5) It is important to note that stressed cells, such as those that are dying, are prone to show an increase in phagocytosis. […] MerTK promotes phagocytosis and thus MerTK inhibition is proposed to lead to inhibition of phagocytosis.[47]
(§6) phagocytosis and cell viability simultaneously. High content imaging is performed with the
(§7) (approximately 22 hours after pHrodo-myelin addition). Three measurements are extracted
(§8) intensity increase (early apoptosis) and decrease (later apoptosis), respectively. These
and 3). […]

[4] = tested on: BV2 (mouse microglia) cell line; assay: as above; assay type: cell-based
Method: as §5, §6, §7, §8
and 3). […]

[5] = HMC3 cells, 10 uM compound, 48 hours treatment, pHrodo-myelin final 20 hours
[6] = BV2 cells, 10 uM compound, 48 hours treatment, pHrodo-myelin final 20 hours
[7] = HMC3, compound 10 uM, pHrodo-myelin
[8] = BV2, compound 10 uM, pHrodo-myelin

| SMILES | 1. Cell count (% control) ([1]; HMC3 cells, 10 uM compound) | 2. Nuclear Area (% Control) ([1]; HMC3 cells, 10 uM compound) | 3. Nuclear DNA Intensity (% control) ([1]; HMC3 cells, 10 uM compound) | 1. Cell count (% control) ([2]; BV2 cells, 10 uM compound) | 2. Nuclear Area (% Control) ([2]; BV2 cells, 10 uM compound) | 3. Nuclear DNA Intensity (% control) ([2]; BV2 cells, 10 uM compound) | 4. Phagocytosis (% control) [3, 5] | 4. Phagocytosis (% control) [4, 6] | 1. Cell count (% control) ([1]; HMC3, compound 10 uM) | 2. Nuclear Area (% Control) ([1]; HMC3, compound 10 uM) | 3. Nuclear DNA Intensity (% control) ([1]; HMC3, compound 10 uM) | 1. Cell count (% control) ([2]; BV2, compound 10 uM) | 2. Nuclear Area (% Control) ([2]; BV2, compound 10 uM) | 3. Nuclear DNA Intensity (% control) ([2]; BV2, compound 10 uM) | 4. Phagocytosis (% control) [3, 7] | 4. Phagocytosis (% control) [4, 8] |
| --- | --- | --- | --- | --- | --- | --- | --- | --- | --- | --- | --- | --- | --- | --- | --- | --- |
| CC(Nc1nc(N2CCCC2)nc2ccccc12)c1ccccc1 (stereo not drawn) [UNC10302900A] | 56.4 % control | 90.6 % Control | 151.6 % control | 9.8 % control | 106.6 % Control | 119.7 % control | 34.5 % control | 110.9 % control |  |  |  |  |  |  |  |  |
| CCCCCCCCCCCCCCCCOCC(COCC(F)(F)F)OP(=O)([O-])OC.[Li+] (stereo not drawn) [UNC8441A] |  |  |  |  |  |  |  |  | 76.1 % control | 97.9 % Control | 109.2 % control | 80.6 % control | 107.7 % Control | 98.9 % control | 43.1 % control | 99.7 % control |
| O=c1[nH]c(=O)n([C@H]2C[C@H](O)[C@@H](CO)O2)cc1/C=C/Br [UNC10100235A] | 104.1 % control | 100.7 % Control | 100.8 % control | 94.9 % control | 117.1 % Control | 94.6 % control | 83.2 % control | 118.4 % control |  |  |  |  |  |  |  |  |
| CN(C)CCCN1c2ccccc2Sc2ccc(Cl)cc21.Cl [UNC10100309D] | 119.8 % control | 102.8 % Control | 91.9 % control | 82.7 % control | 103.4 % Control | 99.3 % control | 88.5 % control | 128.7 % control |  |  |  |  |  |  |  |  |
| COCC(=O)O[C@]1(CCN(C)CCCc2nc3ccccc3[nH]2)CCc2cc(F)ccc2[C@@H]1C(C)C.Cl.Cl [UNC10303193A] |  |  |  |  |  |  |  |  | 77.7 % control | 77.5 % Control | 143.7 % control | 0.0 % control | 78.1 % Control | 3.8 % control | 9.6 % control | 0.0 % control |
| CO[C@H]1C[C@@H]2CC[C@@H](C)[C@@](O)(O2)C(=O)C(=O)N2CCCC[C@H]2C(=O)O[C@H]([C@H](C)C[C@@H]2CC[C@@H](O)[C@H](OC)C2)CC(=O)[C@H](C)/C=C(\C)[C@@H](O)[C@@H](OC)C(=O)[C@H](C)C[C@H](C)/C=C/C=C/C=C/1C [UNC10302852A] | 103.0 % control | 85.8 % Control | 119.9 % control | 54.7 % control | 106.2 % Control | 98.8 % control | 64.8 % control | 309.6 % control |  |  |  |  |  |  |  |  |
| CC(C)c1ccc(/C=N/NC(=O)c2ccc(O)cc2)cc1 [UNC10302878A] | 137.1 % control | 101.0 % Control | 96.0 % control | 104.0 % control | 103.1 % Control | 108.0 % control | 80.2 % control | 129.4 % control |  |  |  |  |  |  |  |  |
| CN(C)CC#Cc1ccc(OCCCc2sc(N3CCc4cccc(C(=O)Nc5nc6ccccc6s5)c4C3)nc2C(=O)O)c(F)c1 [UNC10302697A] |  |  |  |  |  |  |  |  | 92.7 % control | 89.5 % Control | 121.7 % control | 84.3 % control | 106.7 % Control | 111.2 % control | 54.1 % control | 206.2 % control |
| CSc1ccc2c(c1)c(CCN)c(C)n2Cc1ccc(Cl)cc1Cl.Cl [UNC10302700A] |  |  |  |  |  |  |  |  | 10.1 % control | 49.3 % Control | 146.5 % control | 22.6 % control | 113.6 % Control | 33.9 % control | 0.0 % control | 0.00395 % control |
| C=C1C(=O)[C@]23[C@H](O)[C@H]1CC[C@H]2[C@@]12CO[C@]3(O)[C@@H](O)[C@@H]1C(C)(C)CC[C@@H]2O [UNC10302873A] |  |  |  |  |  |  |  |  | 42.7 % control | 59.1 % Control | 208.5 % control | 12.1 % control | 120.3 % Control | 80.8 % control | 0.0307 % control | 153.4 % control |
| CC(=O)N1CCC(NC(=O)NC23CC4CC(CC(C4)C2)C3)CC1 [UNC10302683A] | 168.7 % control | 103.9 % Control | 92.0 % control | 126.3 % control | 103.6 % Control | 107.4 % control | 72.2 % control | 155.4 % control |  |  |  |  |  |  |  |  |
| CC[C@H](C)[C@H](N)C(=O)NCCN1CCOCC1.Cl.Cl [UNC10303094A] | 133.1 % control | 103.2 % Control | 95.9 % control | 133.1 % control | 103.4 % Control | 103.6 % control | 75.5 % control | 157.3 % control |  |  |  |  |  |  |  |  |
| CCOC(=O)c1cccc(CNc2ccc(N(C)C(=O)Nc3ccccc3)cc2)c1 [UNC10302705A] |  |  |  |  |  |  |  |  | 79.1 % control | 96.2 % Control | 114.6 % control | 77.7 % control | 107.2 % Control | 109.9 % control | 139.7 % control | 194.2 % control |
| CNc1nc(C)nc(N[C@H]2CCC[C@@H](C(=O)NCc3ccc(C#N)cc3C(F)(F)F)C2)n1 [UNC10302679A] | 141.0 % control | 100.7 % Control | 92.7 % control | 107.8 % control | 106.3 % Control | 102.1 % control | 69.3 % control | 135.7 % control |  |  |  |  |  |  |  |  |
| c1ccc(-c2nn3c(c2-c2ccnc4cc(OCCN5CCOCC5)ccc24)CCC3)nc1 [UNC10302849A] | 117.4 % control | 115.4 % Control | 85.1 % control | 150.2 % control | 109.6 % Control | 98.8 % control | 64.5 % control | 134.3 % control |  |  |  |  |  |  |  |  |
